Results from US10568890B2 (Xi'An Libang Pharmaceutical Co., Ltd, priority 2012, dated 2020).
≈ marks a conversion by molar mass, not a printed value.

Columns and labels:
[1] = Test of miscibility of formulae in vitro; type: physicochemical
Description: Ethyl lactate was mixed with ethyl oleate, glycerol triacetate, benzyl benzoate, castor oil, sesame oil, soybean oil, corn oil and olive oil respectively for miscibility, and then the conditions of miscibility were observed. Specifically, 1) adding 0.50 ml of ethyl lactate for each one into eight vials of 7 ml each, and then adding 0.50 ml of ethyl oleate, glycerol triacetate, benzyl benzoate, castor oil, sesame oil, soybean oil, corn oil and olive oil thereto respectively; swirl them for 5 min to be mixed uniformly, followed by standing for 10 min, and then observing and recording the conditions of miscibility of various solvents; 2) adding 0.30 ml of sesame oil, soybean oil, corn oil, olive oil, ethyl oleate, glycerol triacetate and benzyl benzoate respectively into seven vials of 7 ml each; and then adding 0.30 ml of castor oil and 0.30 ml of ethyl lactate thereto; swirl them for 5 min to be mixed uniformly, followed by standing for 10 min; and then observing and recording the conditions of miscibility of various solvents.

[2] = system: advanced breast cancer patients (postmenopausal); details: after treatment failure of first-line non-steroid drugs; cited from earlier work
[3] = Solubility test of fulvestrant in some solvents; type: physicochemical; details: 25° C.
Description: If it was dissolved completely, the addition of the drug was resumed to reach a saturated state. Nitrogen was introduced, and the vials were kept airtight and free of light for 1-2 days to reach a dissolution-precipitation balance.

Row | Compound | miscibility of ethyl lactate ([1]; with benzyl benzoate, 0.50 ml each) | miscibility of ethyl lactate ([1]; with castor oil, 0.50 ml each) | miscibility of ethyl lactate ([1]; with corn oil, 0.50 ml each) | miscibility of ethyl lactate ([1]; with ethyl oleate, 0.50 ml each) | miscibility of ethyl lactate ([1]; with glycerol triacetate, 0.50 ml each) | miscibility of ethyl lactate ([1]; with mixed oil 1 (1:1 ethyl oleate and castor oil)) | miscibility of ethyl lactate ([1]; with mixed oil 2 (1:1 benzyl benzoate and castor oil)) | miscibility of ethyl lactate ([1]; with mixed oil 3 (1:1 glycerol triacetate and castor oil)) | miscibility of ethyl lactate ([1]; with mixed oil 4 (1:1 sesame oil and castor oil)) | miscibility of ethyl lactate ([1]; with mixed oil 5 (1:1 corn oil and castor oil)) | miscibility of ethyl lactate ([1]; with mixed oil 6 (1:1 olive oil and castor oil)) | miscibility of ethyl lactate ([1]; with mixed oil 7 (1:1 soybean oil and castor oil)) | miscibility of ethyl lactate ([1]; with olive oil, 0.50 ml each) | miscibility of ethyl lactate ([1]; with sesame oil, 0.50 ml each) | miscibility of ethyl lactate ([1]; with soybean oil, 0.50 ml each) | overall response rate [2] [%] | Solubility ([3]; in benzyl propionate) [mg/mL] | Solubility ([3]; in isopentyl acetate) [mg/mL]
1 | CCOC(=O)C(C)O (stereo not drawn) [ethyl lactate, ethyl α-hydroxylpropionate] | miscible | miscible | immiscible | miscible | miscible | miscible | miscible | miscible | miscible | miscible | miscible | miscible | immiscible | immiscible | immiscible | – | – | –
2 | C=C1C[C@@H]2[C@H](CC[C@]3(C)C(=O)CC[C@@H]23)[C@@]2(C)C=CC(=O)C=C12 [exemestane] | – | – | – | – | – | – | – | – | – | – | – | – | – | – | – | 28 | – | –
3 | C[C@]12CC[C@@H]3c4ccc(O)cc4C[C@@H](CCCCCCCCC[S+]([O-])CCCC(F)(F)C(F)(F)F)[C@H]3[C@@H]1CC[C@@H]2O (stereo partly shown) [fulvestrant] | – | – | – | – | – | – | – | – | – | – | – | – | – | – | – | 37 | 4.34 (≈ 7.15 mM) | 50.98 (≈ 84 mM)
